Columns and labels:
anti-Tn antibodies = test: Inhibition of anti-Tn antibody binding to Tn(+)matrix beads (fluorescent anti-IgM imaging); conditions: 20 mM preincubation, 30 min on ice; anti-human IgM detection
Text: To investigate whether the interaction of the anti-Tn antibodies to the Tn(+)matrix is Tn antigen-dependent, fluorescent-tagged secondary antibodies were used to image the antibodies bound to the Tn(+)matrix. Strong staining for bound IgM (FIG. 3C, upper panel, green fluorescent) was observed, but no significant staining for either IgG or IgA (FIG. 3C, middle and bottom panels). The IgG and IgA1 levels in the bound material are thus either relatively low or these antigens could be cryptic within complexes and inaccessible in the context of the beads. […]
~50 ml of human sera was mixed with 1 ml of Tn(+)matrix beads (50% slurry in PBS) at 4° C. […] The concentration of eluted protein was determined by BCA assay (Cat #23225, Thermo Fisher Scientific). Each fraction (Input, Flow through (FT), Washes) was proportionally loaded, except elution 10 ml, and analyzed on SDS-PAGE, and stained with Coomassie, or transferred to nitrocellulose membrane (Cat #1704158, Bio-Rad) using Trans-Blot Turbo Transfer System (Bio-Rad). […] After washing 3× with TBST for 10 min, the signals were analyzed on an Amersham™ Imager 600 (GE Healthcare Life Sciences) using SuperSignal™ West Pico chemiluminescent substrate (Cat #34578, Thermo Scientific). […] The beads were washed twice with chilled 1 ml of PBS, and analyzed using a microscope (AMG EVOS FL digital inverted microscope, Fisher Scientific, ×100 magnification). […]

anti-Tn CICs = test: Dissociation of anti-Tn CICs by glycomimetic treatment (BN-APAGE-WB); type: biochemical, human; conditions: 100 mM, 2 h at 4° C.; anti-Tn CICs from IgAN patients
Method: Furthermore, it was tested whether the anti-Tn IgM immune complexes can be dissociated from Tn(+)IgA1 using compounds that mimic the Tn antigen-glycomimetics. For this purpose, the anti-Tn CICs were affinity-purified from the sera of IgAN patients; the anti-Tn CICs were treated with mock, α-methylGalNAc (glycomimetic compound, αGalNAc), or α-methylGlcNAc (control compound, αGlcNAc), followed by BN-APAGE-WB and probing for IgM, and IgA. […] An IgA1 signal was unable to be detected in mock and α-methylGlcNAc-treated samples (FIG. 5F, lane 1 and 3, bottom), indicating the IgA1 epitopes may be buried within the CICs and thus not available in this native page set-up for WB detection.
Samples (~0.1 mg) or for plain serum (1:200 dilution in PBS, […]) run on BN-APAGE were transferred onto activated PVDF membrane (Cat #IPVH00010, EMD Millipore, wet-transfer system, 40 V for 2 h). The membranes were quickly destained with 100% methanol, washed with TBST, and blocked with 5% (w/vol) non-fat milk in TBST for 1 h at RT. […]
For glycomimetic treatment, purified anti-Tn CICs (~0.1 mg) was pretreated with α-methylGalNAc (100 mM), α-methylGlcNAc (100 mM), or mock in PBS for 2 h at 4° C. on a rotator (10 rpm) and the samples were analyzed by BN-APAGE-WB and probed for IgM and IgA.

CO[C@H]1O[C@H](CO)[C@H](O)[C@H](O)[C@H]1NC(C)=O [α-methylGalNAc]
inhibition of binding of antibodies to the Tn(+)matrix (anti-Tn antibodies): completely inhibited
dissociation of Tn(+)IgA1 from anti-Tn CICs (anti-Tn CICs): caused dissociation of the Tn(+)IgA1 from anti-Tn IgM immune complexes

— patent US20260328779A1, “METHODS AND COMPOSITIONS FOR THE DIAGNOSIS AND TREATMENT OF IGA NEPHROPATHY” (Beth Israel Deaconess Medical Center, Inc., priority 2022, published 2026)
